This note sets out measurements from patent EP1891948A1, “Treatment of neurological and neuropsychological disorders” (Probiodrug AG, priority 2000, dated 2002).

The subject of the assay is WistarF/Han (WF) rats. The assay is described as follows: 1h food intake with Y1R antagonist pre-treatment (Example 4). Format: in vivo. The following applies: i.c.v., isoleucyl thiazolidine 50nmol, Fig. 11. On the procedure:
Animals. Male WistarF/Han (WF) rats (Central Animal Laboratory, Hannover Medical School, Hannover, Germany, see http://www.mh-hannover.de/institut/tierlabor/wf.htm for details), weighing 330±31 g±SD, were housed in a sound-proof, temperature controlled (24.0±0.5°C) room under specific pathogen free conditions with a 12/12h dark/light cycle (lights on at 07.00 with illumination level of 80 Lux). Food (Altromin lab chow pellets) and tap water were available ad libitum. Under ketamine/xylasine (100/5 mg/kg, i.p.) anesthesia, the rats were fixed in a Kopf stereotaxic frame and implanted with cannulae (Plastic One, Inc., Roanoke, VA, USA) above the lateral ventricle. All research and animal care procedures were approved by the Lower Saxony district government (Hannover, Germany) and followed principles described in the European Community's Council Directive of 24 November 1986 (86/609/EEC).
Surgery and i.c.v. application. For surgery, rats were anesthetized and prepared with i.c.v. cannulae (coordinates: A:-0.7mm caudal, L:1.4mm lateral to bregma; and V3.2mm ventral to the skull surface; tooth bar +3.0 above ear bars) using standard stereotaxic procedures as described in detail elsewhere (von Hörsten et al., 1998a,b,c). After a 7-day recovery period, successful ventricle cannulation was confirmed by an angiotensin drinking response (von Hörsten et al., 1998a). Rats showing a positive drinking response (n=56) were then habituated to experimental handling by daily sham injections for seven days.
Animals were randomly divided into eight experimental groups (n=6-8/group), which completed one SI test of anxiety: (1) aCSF+aCSF+aCSF; (2) BIBP+aCSF+aCSF; (3) aCSF+isoleucyl thiazolidine+aCSF; (4) BIBP+isoleucyl thiazolidine+aCSF; (5) aCSF+aCSF+NPY; (6) BIBP+aCSF+NPY; (7) aCSF+P32/89+NPY; (8) BIBP+isoleucyl thiazolidine+NPY. Animals in each group were treated in an identical way in each phase, receiving i.c.v. injections -60mins and -55min before behavioral testing. Experiments spanned two nights with groups counterbalances on both dark cycles. The injection cannula was attached to a Hamilton microsyringe with approximately 30cm of polyethylene tubing and all compounds were infused in a total volume of 5.0µl at a rate of 5.0 µl/min using a TSE multichannel infusion pump (Bad Homburg, Germany). The time spent in active social interaction (SI-time), 1h, and 12h food-intake were measured.
Peptides and Antagonist. Rat neuropeptide Y1-36 was obtained from Polypeptide Laboratories (Wolfenbüttel, Germany). The NPY Y1 receptor antagonist BIBP3226 was purchased from American Peptide Company, Sunnyvale, CA, USA (Cat#:60-1-22B). […]
Statistical analysis. Data obtained from the measures SI time and 1h food intake were analyzed by one-way (factor: "treatment") ANOVA. […]

As to `CCC(C)C(N)C(=O)N1CCSC1` (centres unmarked) [isoleucyl thiazolidine], the “1h feeding under Y1R blockade” value (BIBP3226 100nmol pre-treatment, NPY 0.8nmol) is on record as “blocked”. Further, under “without antagonist”, the 1h food-intake entry was “non-significant slight increase”.
